From patent US20100099561A1, “HETEROBICYCLIC ALKYLTHIO-BRIDGED ISOXAZOLINES” (E.I. DU PONT DE NEMOURS AND COMPANY, priority 2008, published 2010)

What was measured:
Format in all cases: in vivo
[1] = test system: barnyardgrass (Echinochloa crus-galli); assay: Test A preemergence, barnyardgrass; conditions: 0 to 100 scale (0 no effect, 100 complete control)
Outline: (§1)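 Seeds sown in loam soil–sand blend; test chemicals in non-phytotoxic solvent mixture with surfactant applied preemergence as directed soil spray, or postemergence to plants 2–10 cm tall at one- to two-leaf stage. Greenhouse, ~10 days; visual injury rated against untreated controls, 0 (no effect) to 100 (complete control).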

[2] = test system: large crabgrass (Digitaria sanguinalis); assay: Test A preemergence, large crabgrass; conditions: 0 to 100 scale (0 no effect, 100 complete control)
Outline: as §1

[3] = test system: giant foxtail (Setaria faberi); assay: Test A preemergence, giant foxtail; conditions: 0 to 100 scale (0 no effect, 100 complete control)
Outline: as §1

[4] = test system: morningglory (Ipomoea spp.); assay: Test A preemergence, morningglory; conditions: 0 to 100 scale (0 no effect, 100 complete control)
Outline: as §1

[5] = test system: pigweed (Amaranthus retroflexus); assay: Test A preemergence, pigweed; conditions: 0 to 100 scale (0 no effect, 100 complete control)
Outline: as §1

[6] = test system: velvetleaf (Abutilon theophrasti); assay: Test A preemergence, velvetleaf; conditions: 0 to 100 scale (0 no effect, 100 complete control)
Outline: as §1

[7] = test system: wheat (Triticum aestivum); assay: Test A preemergence, wheat; conditions: 0 to 100 scale (0 no effect, 100 complete control)
Outline: as §1

corn (Zea mays) [8] = assay: Test A preemergence, corn; conditions: 0 to 100 scale (0 no effect, 100 complete control)
Outline: as §1

[9] = test system: barnyardgrass (Echinochloa crus-galli); assay: Test A postemergence, barnyardgrass; conditions: 0 to 100 scale (0 no effect, 100 complete control)
Outline: as §1

[10] = test system: large crabgrass (Digitaria sanguinalis); assay: Test A postemergence, large crabgrass; conditions: 0 to 100 scale (0 no effect, 100 complete control)
Outline: as §1

[11] = test system: giant foxtail (Setaria faberi); assay: Test A postemergence, giant foxtail; conditions: 0 to 100 scale (0 no effect, 100 complete control)
Outline: as §1

[12] = test system: morningglory (Ipomoea spp.); assay: Test A postemergence, morningglory; conditions: 0 to 100 scale (0 no effect, 100 complete control)
Outline: as §1

[13] = test system: pigweed (Amaranthus retroflexus); assay: Test A postemergence, pigweed; conditions: 0 to 100 scale (0 no effect, 100 complete control)
Outline: as §1

[14] = test system: velvetleaf (Abutilon theophrasti); assay: Test A postemergence, velvetleaf; conditions: 0 to 100 scale (0 no effect, 100 complete control)
Outline: as §1

[15] = test system: wheat (Triticum aestivum); assay: Test A postemergence, wheat; conditions: 0 to 100 scale (0 no effect, 100 complete control)
Outline: as §1

corn (Zea mays) [16] = assay: Test A postemergence, corn; conditions: 0 to 100 scale (0 no effect, 100 complete control)
Outline: as §1

rice (Oryza sativa) = assay: Test B flooded paddy test, rice; conditions: Flood, scale 0 to 100
Outline: (§2)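 Paddy-water application to 2-leaf plants in pots held under 3 cm of flooding; response is a 0–100 visual control rating against controls after 13 to 15 days, and a dash marks a missing result.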

[17] = test system: umbrella sedge (Cyperus difformis); assay: Test B flooded paddy test, umbrella sedge; conditions: Flood, scale 0 to 100
Outline: as §2

[18] = test system: ducksalad (Heteranthera limosa); assay: Test B flooded paddy test, ducksalad; conditions: Flood, scale 0 to 100
Outline: as §2

[19] = test system: barnyardgrass (Echinochloa crus-galli); assay: Test B flooded paddy test, barnyardgrass; conditions: Flood
Outline: as §2

[20] = 250 g ai/ha, scale 0 to 100 (0 no effect, 100 complete control)

Compound: CC1(C)CC([S+]([O-])Cc2c(C(F)(F)Cl)nc3n(c2=O)CCCS3)=NO1 (centres unmarked) [Compound 36]
- Plant response rating, Barnyardgrass ([1]; 125 g ai/ha): 0
- Plant response rating, Barnyardgrass ([1]; 500 g ai/ha): 60
- Plant response rating, Crabgrass, Large ([2]; 125 g ai/ha): 30
- Plant response rating, Crabgrass, Large ([2]; 500 g ai/ha): 50
- Plant response rating, Foxtail, Giant ([3]; 125 g ai/ha): 30
- Plant response rating, Foxtail, Giant ([3]; 500 g ai/ha): 70
- Plant response rating, Morningglory ([4]; 125 g ai/ha): 0
- Plant response rating, Morningglory ([4]; 500 g ai/ha): 0
- Plant response rating, Pigweed ([5]; 125 g ai/ha): 0
- Plant response rating, Pigweed ([5]; 500 g ai/ha): 0
- Plant response rating, Velvetleaf ([6]; 125 g ai/ha): 0
- Plant response rating, Velvetleaf ([6]; 500 g ai/ha): 0
- Plant response rating, Wheat ([7]; 125 g ai/ha): 0
- Plant response rating, Wheat ([7]; 500 g ai/ha): 0
- Plant response rating, Corn (corn (Zea mays) [8]; 125 g ai/ha): 0
- Plant response rating, Corn (corn (Zea mays) [8]; 500 g ai/ha): 10
- Plant response rating, Barnyardgrass ([9]; 125 g ai/ha): 20
- Plant response rating, Barnyardgrass ([9]; 500 g ai/ha): 50
- Plant response rating, Crabgrass, Large ([10]; 125 g ai/ha): 30
- Plant response rating, Crabgrass, Large ([10]; 500 g ai/ha): 50
- Plant response rating, Foxtail, Giant ([11]; 125 g ai/ha): 50
- Plant response rating, Foxtail, Giant ([11]; 500 g ai/ha): 60
- Plant response rating, Morningglory ([12]; 125 g ai/ha): 0
- Plant response rating, Morningglory ([12]; 500 g ai/ha): 30
- Plant response rating, Pigweed ([13]; 125 g ai/ha): 0
- Plant response rating, Pigweed ([13]; 500 g ai/ha): 0
- Plant response rating, Velvetleaf ([14]; 125 g ai/ha): 0
- Plant response rating, Velvetleaf ([14]; 500 g ai/ha): 0
- Plant response rating, Wheat ([15]; 125 g ai/ha): 0
- Plant response rating, Wheat ([15]; 500 g ai/ha): 20
- Plant response rating, Corn (corn (Zea mays) [16]; 500 g ai/ha): 0
- Plant response rating, Rice (rice (Oryza sativa); 31 g ai/ha): 0
- Plant response rating, Rice (rice (Oryza sativa); 62 g ai/ha): 0
- Plant response rating, Rice (rice (Oryza sativa); 125 g ai/ha): 0
- Plant response rating, Rice (rice (Oryza sativa); 250 g ai/ha): 0
- Plant response rating, Sedge, Umbrella ([17]; 31 g ai/ha): 0
- Plant response rating, Sedge, Umbrella ([17]; 62 g ai/ha): 0
- Plant response rating, Sedge, Umbrella ([17]; 125 g ai/ha): 0
- Plant response rating, Sedge, Umbrella ([17]; 250 g ai/ha): 0
- Plant response rating, Ducksalad ([18]; 31 g ai/ha): 0
- Plant response rating, Ducksalad ([18]; 62 g ai/ha): 0
- Plant response rating, Ducksalad ([18]; 125 g ai/ha): 0
- Plant response rating, Ducksalad ([18]; 250 g ai/ha): 0
- Plant response rating, Barnyardgrass ([19]; 31 g ai/ha, scale 0 to 100): 0
- Plant response rating, Barnyardgrass ([19]; 62 g ai/ha, scale 0 to 100): 0
- Plant response rating, Barnyardgrass ([19]; 125 g ai/ha, scale 0 to 100): 0
- Plant response rating, Barnyardgrass [19, 20]: 0

Compound: CCn1c(=O)c(C[S+]([O-])C2=NOC(C)(C)C2)nc2cccnc21 (centres unmarked) [Compound 38]
- Plant response rating, Barnyardgrass ([1]; 125 g ai/ha): 0
- Plant response rating, Barnyardgrass ([1]; 500 g ai/ha): 0
- Plant response rating, Crabgrass, Large ([2]; 125 g ai/ha): 0
- Plant response rating, Crabgrass, Large ([2]; 500 g ai/ha): 0
- Plant response rating, Foxtail, Giant ([3]; 125 g ai/ha): 0
- Plant response rating, Foxtail, Giant ([3]; 500 g ai/ha): 0
- Plant response rating, Morningglory ([4]; 125 g ai/ha): 0
- Plant response rating, Morningglory ([4]; 500 g ai/ha): 0
- Plant response rating, Pigweed ([5]; 125 g ai/ha): 0
- Plant response rating, Pigweed ([5]; 500 g ai/ha): 0
- Plant response rating, Velvetleaf ([6]; 125 g ai/ha): 0
- Plant response rating, Velvetleaf ([6]; 500 g ai/ha): 0
- Plant response rating, Wheat ([7]; 125 g ai/ha): 0
- Plant response rating, Wheat ([7]; 500 g ai/ha): 0
- Plant response rating, Corn (corn (Zea mays) [8]; 125 g ai/ha): 0
- Plant response rating, Corn (corn (Zea mays) [8]; 500 g ai/ha): 0
- Plant response rating, Barnyardgrass ([9]; 125 g ai/ha): 20
- Plant response rating, Barnyardgrass ([9]; 500 g ai/ha): 30
- Plant response rating, Crabgrass, Large ([10]; 125 g ai/ha): 0
- Plant response rating, Crabgrass, Large ([10]; 500 g ai/ha): 20
- Plant response rating, Foxtail, Giant ([11]; 125 g ai/ha): 0
- Plant response rating, Foxtail, Giant ([11]; 500 g ai/ha): 0
- Plant response rating, Morningglory ([12]; 125 g ai/ha): 0
- Plant response rating, Morningglory ([12]; 500 g ai/ha): 10
- Plant response rating, Pigweed ([13]; 125 g ai/ha): 0
- Plant response rating, Pigweed ([13]; 500 g ai/ha): 0
- Plant response rating, Velvetleaf ([14]; 125 g ai/ha): 0
- Plant response rating, Velvetleaf ([14]; 500 g ai/ha): 30
- Plant response rating, Wheat ([15]; 125 g ai/ha): 0
- Plant response rating, Wheat ([15]; 500 g ai/ha): 10
- Plant response rating, Corn (corn (Zea mays) [16]; 125 g ai/ha): 0
- Plant response rating, Corn (corn (Zea mays) [16]; 500 g ai/ha): 0
- Plant response rating, Rice (rice (Oryza sativa); 31 g ai/ha): 0
- Plant response rating, Rice (rice (Oryza sativa); 62 g ai/ha): 0
- Plant response rating, Rice (rice (Oryza sativa); 125 g ai/ha): 0
- Plant response rating, Rice (rice (Oryza sativa); 250 g ai/ha): 0
- Plant response rating, Sedge, Umbrella ([17]; 31 g ai/ha): 0
- Plant response rating, Sedge, Umbrella ([17]; 62 g ai/ha): 0
- Plant response rating, Sedge, Umbrella ([17]; 125 g ai/ha): 0
- Plant response rating, Sedge, Umbrella ([17]; 250 g ai/ha): 0
- Plant response rating, Ducksalad ([18]; 31 g ai/ha): 0
- Plant response rating, Ducksalad ([18]; 62 g ai/ha): 0
- Plant response rating, Ducksalad ([18]; 125 g ai/ha): 0
- Plant response rating, Ducksalad ([18]; 250 g ai/ha): 0
- Plant response rating, Barnyardgrass ([19]; 31 g ai/ha, scale 0 to 100): 0
- Plant response rating, Barnyardgrass ([19]; 62 g ai/ha, scale 0 to 100): 0
- Plant response rating, Barnyardgrass ([19]; 125 g ai/ha, scale 0 to 100): 0
- Plant response rating, Barnyardgrass [19, 20]: 0
